In US9955691B2, “Macrocyclic picolinamides as fungicides” (DOW AGROSCIENCES LLC, priority 2014, dated 2018):
Where two headings read alike, the source gives them in different places.

Columns and labels:
Puccinia triticina = experiment: Fungicidal activity: Wheat Brown Rust (PUCCRT); assay type: in vivo; details: Low Volume (121.5 g/H)
Method: (§1) Technical grades of materials were dissolved in acetone, which were then mixed with nine volumes of water containing 110 ppm Triton X-100. The fungicide solutions were applied onto wheat seedlings using an automated booth sprayer to run-off. All sprayed plants were allowed to air dry prior to further handling. All fungicides were evaluated using the aforementioned method for their activity vs. all target diseases, unless stated otherwise. Wheat leaf blotch and brown rust activity were also evaluated using track spray applications, in which case the fungicides were formulated as EC formulations, containing 0.1% Trycol 5941 in the spray solutions. Wheat plants (variety Yuma) were grown from seed in a greenhouse in 50% mineral soil/50% soil-less Metro mix until the first leaf was fully emerged, with 7-10 seedlings per pot. These plants were inoculated with an aqueous spore suspension of Septoria tritici either prior to or after fungicide treatments. After inoculation the plants were kept in 100% relative humidity (one day in a dark dew chamber followed by two to three days in a lighted dew chamber at 20° C.) to permit spores to germinate and infect the leaf. The plants were then transferred to a greenhouse set at 20° C. for disease to develop. When disease symptoms were fully expressed on the 1st leaves of untreated plants, infection levels were assessed on a scale of 0 to 100 percent disease severity. Percent disease control was calculated using the ratio of disease severity on treated plants relative to untreated plants. Evaluation of Fungicidal Activity: Wheat Brown Rust (Puccinia triticina; Synonym: Puccinia recondite f. Sp. Tritici; Bayer Code PUCCRT) Wheat plants (variety Yuma) were grown from seed in a greenhouse in 50% mineral soil/50% soil-less Metro mix until the first leaf was fully emerged, with 7-10 seedlings per pot. These plants were inoculated with an aqueous spore suspension of Puccinia triticina either prior to or after fungicide treatments. After inoculation the plants were kept in a dark dew room at 22° C. with 100% relative humidity overnight to permit spores to germinate and infect the leaf. The plants were then transferred to a greenhouse set at 24° C. for disease to develop. Fungicide formulation, application and disease assessment followed the procedures as described in the Example A.

[1] = test system: Mycosphaerella graminicola; Anamorph: Septoria tritici; experiment: Fungicidal activity: Leaf Blotch of Wheat (SEPTTR); assay type: in vivo; details: Zymoseptoria tritici, Low Volume (121.5 g/H), wheat leaf blotch
Method: as §1, with “Evaluation of Fungicidal Activity: Leaf Blotch of Wheat (Mycosphaerella graminicola; Anamorph: Septoria tritici; Bayer Code […]) Technical” for “Technical”, “plants.” for “plants. Evaluation of Fungicidal Activity: Wheat Brown Rust (Puccinia triticina; Synonym: Puccinia recondite f. Sp. Tritici; Bayer Code PUCCRT) Wheat plants (variety Yuma) were grown from seed in a greenhouse in 50% mineral soil/50% soil-less Metro mix until the first leaf was fully emerged, with 7-10 seedlings per pot. These plants were inoculated with an aqueous spore suspension of Puccinia triticina either prior to or after fungicide treatments. After inoculation the plants were kept in a dark dew room at 22° C. with 100% relative humidity overnight to permit spores to germinate and infect the leaf. The plants were then transferred to a greenhouse set at 24° C. for disease to develop. Fungicide formulation, application and disease assessment followed the procedures as described in the Example A.”

[2] = 24 h, 1 Day Protectant, read-out: PUCCRT 1 DP disease control
[3] = 72 h, 3 Day Curative, read-out: PUCCRT 3 DC disease control
[4] = 24 h, 1 Day Protectant, read-out: SEPTTR 1 DP disease control
[5] = 72 h, 3 Day Curative, read-out: SEPTTR 3 DC disease control

Row | Compound | pest or weed control at 121.5 g/ha (Puccinia triticina; [2]) [%] | pest or weed control at 121.5 g/ha (Puccinia triticina; [3]) [%] | pest or weed control at 121.5 g/ha [1, 4] [%] | pest or weed control at 121.5 g/ha [1, 5] [%]
1 | CCOCC(=O)OCOc1c(OC)ccnc1C(=O)N[C@H]1COC[C@H](CCC(C)C)[C@@H](CCc2ccccc2)[C@H](C)OC1=O [compound 36] | > 70 | < 70 | > 70 | > 70
2 | COc1ccnc(C(=O)N[C@H]2COC[C@H](Cc3ccccc3)[C@@H](C3CCCC3)[C@H](C)OC2=O)c1OC(C)=O [compound 37] | > 70 | > 70 | > 70 | > 70
3 | COc1ccnc(C(=O)N[C@H]2COC[C@H](Cc3ccccc3)[C@@H](C3CCCC3)[C@H](C)OC2=O)c1OCOC(C)=O [compound 38] | > 70 | > 70 | > 70 | > 70
4 | COc1ccnc(C(=O)N[C@H]2COC[C@H](Cc3ccccc3)[C@@H](C3CCCC3)[C@H](C)OC2=O)c1OCOC(=O)C(C)C [compound 39] | > 70 | > 70 | > 70 | > 70
5 | CCOCC(=O)OCOc1c(OC)ccnc1C(=O)N[C@H]1COC[C@H](Cc2ccccc2)[C@@H](C2CCCC2)[C@H](C)OC1=O [compound 40] | > 70 | > 70 | > 70 | > 70
6 | COc1ccnc(C(=O)N[C@H]2COC[C@H](CCCc3ccccc3)[C@@H](Cc3ccccc3)[C@H](C)OC2=O)c1OC(C)=O [compound 41] | > 70 | > 70 | > 70 | > 70
7 | COc1ccnc(C(=O)N[C@H]2COC[C@H](CCCc3ccccc3)[C@@H](Cc3ccccc3)[C@H](C)OC2=O)c1OCOC(C)=O [compound 42] | > 70 | < 70 | > 70 | > 70
8 | COc1ccnc(C(=O)N[C@H]2COC[C@H](CCCc3ccccc3)[C@@H](Cc3ccccc3)[C@H](C)OC2=O)c1OCOC(=O)C(C)C [compound 43] | > 70 | < 70 | > 70 | > 70
9 | COc1ccnc(C(=O)N[C@H]2COC[C@H](CCC(C)C)[C@@H](Cc3ccccc3)[C@H](C)OC2=O)c1OCOC(C)=O [compound 44] | > 70 | < 70 | > 70 | > 70
10 | CCOCC(=O)OCOc1c(OC)ccnc1C(=O)N[C@H]1COC[C@H](CCC(C)C)[C@@H](Cc2ccccc2)[C@H](C)OC1=O [compound 45] | > 70 | > 70 | > 70 | > 70
11 | COc1ccnc(C(=O)N[C@H]2COC[C@H](CCC(C)C)[C@@H](Cc3ccccc3)[C@H](C)OC2=O)c1OC(C)=O [compound 46] | > 70 | > 70 | > 70 | > 70
12 | COc1ccnc(C(=O)N[C@H]2COC[C@H](Cc3ccc(Cl)cc3)[C@@H](Cc3ccccc3)[C@H](C)OC2=O)c1OCOC(C)=O [compound 47] | > 70 | > 70 | > 70 | > 70
13 | COc1ccnc(C(=O)N[C@H]2COC[C@H](Cc3ccccc3)[C@@H](Cc3ccc(OC(F)(F)F)cc3)[C@H](C)OC2=O)c1OCOC(=O)C(C)C [compound 48] | > 70 | < 70 | > 70 | > 70
14 | COc1ccnc(C(=O)N[C@H]2COC[C@H](Cc3ccccc3)[C@@H](Cc3ccc(OC(F)(F)F)cc3)[C@H](C)OC2=O)c1OCOC(C)=O [compound 49] | > 70 | < 70 | > 70 | < 70
15 | COc1ccnc(C(=O)N[C@H]2COC[C@H](Cc3ccccc3)[C@@H](Cc3ccc(OC(F)(F)F)cc3)[C@H](C)OC2=O)c1OC(C)=O [compound 50] | > 70 | < 70 | > 70 | < 70
16 | CCOCC(=O)OCOc1c(OC)ccnc1C(=O)N[C@H]1COC[C@H](Cc2ccccc2)[C@@H](c2ccccc2)[C@H](C)OC1=O [compound 51] | > 70 | < 70 | > 70 | < 70
17 | COc1ccnc(C(=O)N[C@H]2COC[C@H](Cc3ccccc3)[C@@H](c3ccccc3)[C@H](C)OC2=O)c1OCOC(C)=O [compound 53] | > 70 | > 70 | > 70 | > 70
18 | COc1ccnc(C(=O)N[C@H]2COC[C@H](Cc3ccc(C(F)(F)F)cc3)[C@@H](Cc3ccccc3)[C@H](C)OC2=O)c1OC(C)=O [compound 55] | > 70 | > 70 | > 70 | > 70
19 | COc1ccnc(C(=O)N[C@H]2COC[C@H](Cc3ccc(C(F)(F)F)cc3)[C@@H](Cc3ccccc3)[C@H](C)OC2=O)c1OCOC(C)=O [compound 56] | > 70 | < 70 | > 70 | < 70
20 | COc1ccnc(C(=O)N[C@H]2COC[C@H](Cc3ccc(C(F)(F)F)cc3)[C@@H](Cc3ccccc3)[C@H](C)OC2=O)c1OCOC(=O)C(C)C [compound 57] | > 70 | < 70 | > 70 | > 70
21 | COc1ccnc(C(=O)N[C@H]2COC[C@H](Cc3ccccc3)[C@@H](Cc3ccc(F)cc3)[C@H](C)OC2=O)c1OC(C)=O [compound 60] | < 70 | < 70 | > 70 | < 70
22 | COc1ccnc(C(=O)N[C@H]2COC[C@H](Cc3ccccc3)[C@@H](Cc3ccc(F)cc3)[C@H](C)OC2=O)c1OCOC(C)=O [compound 61] | > 70 | > 70 | > 70 | > 70
23 | COc1ccnc(C(=O)N[C@H]2COC[C@H](CCCc3ccccc3)[C@@H](CC(C)C)[C@H](C)OC2=O)c1OC(C)=O [compound 62] | > 70 | > 70 | > 70 | > 70
24 | CCC[C@H]1COC[C@H](NC(=O)c2nccc(OC)c2OCOC(C)=O)C(=O)O[C@@H](C)[C@@H]1CC(C)C [compound 63] | > 70 | < 70 | < 70 | < 70
25 | CCC[C@H]1COC[C@H](NC(=O)c2nccc(OC)c2OC(C)=O)C(=O)O[C@@H](C)[C@@H]1CC(C)C [compound 64] | > 70 | > 70 | > 70 | > 70
